Earlier results on two compounds are cited in US8097644B2, “Indole compounds having sphingosine-1-phosphate (S1P) receptor antagonist” (Allergan, Inc., priority 2006, dated 2012).

Structures are written as SMILES.

The test system of one series is perfused porcine eyes. The note with it: perfused porcine eyes (IOVS 45, 2263; 2004).
Series [1] has as its system cardiac G protein-gated potassium channel IKACh. The note with it: whole-cell recordings.

`CCCCCCCCCCCCC/C=C/[C@@H](O)[C@@H](N)COP(=O)(O)O` [Example S1P, Sphingosine-1-Phosphate]: the “decrease of outflow facility” value in the series with perfused porcine eyes is listed as > 30%. Regarding `CCCCCCCCc1ccc(CC[C@](N)(CO)COP(=O)(O)O)cc1` [FTY720-P], the “myocytes responding to acetylcholine in which an inwardly rectifying potassium current was evoked” value in series [1] was ~90%.
